In article PMC10449633 (Nature Chemical Biology, 2023):
Values joined by “and” are separate entries in the source; they are usually repeats but may differ in a detail not shown here. Equal values may be shown once. Read-outs that look alike come from different tables or passages of the source. Numbered stars: 1 amine (or outer) side, 2 acyl side, 3 side chain; on linkers, the order of the positions; unused ones are H or OH. Square brackets hold non-standard residues; d marks the D form. Peptide text beside a SMILES is read from it. NMeTrp(1-(4-Br-benzyl)) = CN[C@@H](Cc1cn(Cc2ccc(Br)cc2)c2ccccc12)C(=O)O; X3 = CCn1cc(C[C@@H](C(=O)[*:2])N(C)[*:1])c2ccccc21; Butanoyl(2R-oxy,4-CN) = N#CCC[C@@H](O)C(=O)O; Abu(4,4,4-F3) = N[C@@H](CC(F)(F)F)C(=O)O; NMeL = CN[C@@H](CC(C)C)C(=O)O; NMeA = CN[C@@H](C)C(=O)O

Columns and labels:
Sec61 = biological target: T1, Sec61 (Homo sapiens, UniProt P61619); assay: cell-based; conditions: for IC50: 24 h, range in brackets
T1 construct: endogenous in cells
T1 sequence (P60059 whole entry): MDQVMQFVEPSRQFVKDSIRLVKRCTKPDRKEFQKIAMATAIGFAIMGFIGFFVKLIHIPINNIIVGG
T1 sequence (P61619 whole entry): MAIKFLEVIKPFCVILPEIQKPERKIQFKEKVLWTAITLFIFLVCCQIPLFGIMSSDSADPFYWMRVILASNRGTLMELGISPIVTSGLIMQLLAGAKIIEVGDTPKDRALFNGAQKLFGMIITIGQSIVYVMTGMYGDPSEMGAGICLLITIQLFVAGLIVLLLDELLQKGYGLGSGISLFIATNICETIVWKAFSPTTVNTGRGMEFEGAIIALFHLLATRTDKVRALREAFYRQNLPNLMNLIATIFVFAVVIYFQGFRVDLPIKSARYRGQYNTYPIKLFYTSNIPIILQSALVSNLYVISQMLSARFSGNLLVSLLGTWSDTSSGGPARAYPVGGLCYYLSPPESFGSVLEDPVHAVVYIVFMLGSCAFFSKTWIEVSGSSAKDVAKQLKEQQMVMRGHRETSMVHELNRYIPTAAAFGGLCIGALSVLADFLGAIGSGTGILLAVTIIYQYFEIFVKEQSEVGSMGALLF
T1 sequence (P60468 whole entry, further chain): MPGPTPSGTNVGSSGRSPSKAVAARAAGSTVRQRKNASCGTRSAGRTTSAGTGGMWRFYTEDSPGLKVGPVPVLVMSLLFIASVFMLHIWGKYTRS

SARS-CoV-2 [1] = assay type: cell-based; conditions: 48 h
SARS-CoV-2 [2] = assay type: cell-based; conditions: 48 h; remark: listed apart in the source
SARS-CoV-2 [3] = conditions: infected 48 h
[4] = tested on: collagen antibody-induced arthritis in BALB/c mice; assay: Anticollagen antibody-induced arthritis model, clinical scores; assay type: in vivo, mouse; conditions: individual mice

For `CCn1cc(C[C@H]2C(=O)N[C@@H](CC(C)C)C(=O)N(C)[C@@H](C)C(=O)O[C@H](CCC#N)C(=O)N[C@@H](CC(F)(F)F)C(=O)N(C)[C@@H](CC(C)C)C(=O)N[C@@H](CC(F)(F)F)C(=O)N2C)c2ccccc21` [KZR-0509508] (cyclo(L[NMeA][Butanoyl(2R-oxy,4-CN)][Abu(4,4,4-F3)][NMeL][Abu(4,4,4-F3)][X3])), the “GLuc reporter raw signal (replicates)” value (Sec61; HER3, Concentration 0.32) was 2917200 and 2920600 and 2895100, the “GLuc reporter raw signal (replicates)” value (Sec61; HER3, Concentration 40) was 2324600 and 2421500 and 2482600 and the “GLuc reporter raw signal (replicates)” value (Sec61; HER3, Concentration 200) was 860870 and 901980 and 850270. For the same compound, the “GLuc reporter raw signal (replicates)” value (Sec61; HER3, Concentration 1000) was 128950 and 127590 and 122180, the “GLuc reporter raw signal (replicates)” value (Sec61; HER3, Concentration 5000) was 21107 and 19954 and 21458 and the “GLuc reporter raw signal (replicates)” value (Sec61; HER3, Concentration 25000) was 18661 and 19673 and 20195. The “GLuc reporter raw signal (replicates)” value (Sec61; IL2, Concentration 0.32) was 2617800 and 2680800 and 2713900, the “GLuc reporter raw signal (replicates)” value (Sec61; IL2, Concentration 8) was 2560100 and 2737500 and 2592900 and the “GLuc reporter raw signal (replicates)” value (Sec61; IL2, Concentration 40) was 2448500 and 2433000 and 2516300. The “GLuc reporter raw signal (replicates)” value (Sec61; IL2, Concentration 200) was 2434300 and 2250900 and 2386200, the “GLuc reporter raw signal (replicates)” value (Sec61; IL2, Concentration 1000) was 1366100 and 1331100 and 1340300 and the “GLuc reporter raw signal (replicates)” value (Sec61; IL2, Concentration 5000) was 148660 and 137160 and 137620. For the same compound, the “GLuc reporter raw signal (replicates)” value (Sec61; IL2, Concentration 25000) was 72344 and 71940 and 72808, the “GLuc reporter raw signal (replicates)” value (Sec61; PD1, Concentration 0.32) was 1140200 and 1151600 and 1079300 and the “GLuc reporter raw signal (replicates)” value (Sec61; PD1, Concentration 8) was 1090400 and 1094000 and 1069700. For the same compound, the “GLuc reporter raw signal (replicates)” value (Sec61; PD1, Concentration 40) was 1001600 and 1054300 and 960410, the “GLuc reporter raw signal (replicates)” value (Sec61; PD1, Concentration 200) was 810270 and 826880 and 727000 and the “GLuc reporter raw signal (replicates)” value (Sec61; PD1, Concentration 1000) was 298160 and 288700 and 294700. The “GLuc reporter raw signal (replicates)” value (Sec61; PD1, Concentration 5000) was 19269 and 21595 and 21074, the “GLuc reporter raw signal (replicates)” value (Sec61; PD1, Concentration 25000) was 12135 and 12576 and 11044 and the “GLuc reporter raw signal (replicates)” value (Sec61; Prolactin, Concentration 0.32) was 8343700 and 8651000 and 8237500. The “GLuc reporter raw signal (replicates)” value (Sec61; Prolactin, Concentration 8) was 8140000 and 8910000 and 8852700, the “GLuc reporter raw signal (replicates)” value (Sec61; Prolactin, Concentration 40) was 8482300 and 8946000 and 7991900 and the “GLuc reporter raw signal (replicates)” value (Sec61; Prolactin, Concentration 200) was 8151300 and 9013100 and 8191700. For the same compound, the “GLuc reporter raw signal (replicates)” value (Sec61; Prolactin, Concentration 1000) was 7614900 and 8029100 and 7622300, the “GLuc reporter raw signal (replicates)” value (Sec61; Prolactin, Concentration 5000) was 6257700 and 6043200 and 6299800 and the “GLuc reporter raw signal (replicates)” value (Sec61; Prolactin, Concentration 25000) was 4760600 and 4742900 and 4623400. The “GLuc reporter raw signal (replicates)” value (Sec61; TNFa, Concentration 0.32) was 157540 and 153990 and 156290, the “GLuc reporter raw signal (replicates)” value (Sec61; TNFa, Concentration 8) was 177590 and the “GLuc reporter raw signal (replicates)” value (Sec61; TNFa, Concentration 40) was 174140 and 177930 and 180980. The “GLuc reporter raw signal (replicates)” value (Sec61; TNFa, Concentration 200) was 165100 and 188550 and 172890, the “GLuc reporter raw signal (replicates)” value (Sec61; TNFa, Concentration 1000) was 101080 and 103620 and 107580 and the “GLuc reporter raw signal (replicates)” value (Sec61; TNFa, Concentration 5000) was 30162 and 28185 and 30634. The “GLuc reporter raw signal (replicates)” value (Sec61; TNFa, Concentration 25000) was 17845 and 17474 and 16301.
In the case of `CC[C@H]1CN2CCc3cc(OC)c(OC)cc3[C@@H]2C[C@@H]1C[C@H]1NCCc2cc(OC)c(OC)cc21` [Emetine, reference compound], the “infectious virus particle production” value (SARS-CoV-2 [1]; 1.11 uM) is reported as 632.456 TCID50 per milliliter, the “infectious virus particle production” value (SARS-CoV-2 [1]; 3.33 uM) is reported as 632.456 TCID50 per milliliter and 430.887 TCID50 per milliliter and the “infectious virus particle production” value (SARS-CoV-2 [1]; 10 uM) is reported as 632.456 TCID50 per milliliter. For the same compound, the “viral genome copy number” value (SARS-CoV-2 [2]; 0.01 uM) was 24100000 and 12600000 and 15400000, the “viral genome copy number” value (SARS-CoV-2 [2]; 0.04 uM) was 19500000 and 12600000 and 14500000 and the “viral genome copy number” value (SARS-CoV-2 [2]; 0.12 uM) was 9690000 and 6770000 and 10700000. For the same compound, the “viral genome copy number” value (SARS-CoV-2 [2]; 1.11 uM) was 81000 and 73500 and 71100, the “viral genome copy number” value (SARS-CoV-2 [2]; 3.33 uM) was 85400 and 62200 and 61600 and the “viral genome copy number” value (SARS-CoV-2 [2]; 10 uM) was 58200 and 54400 and 71200. The cell viability (SARS-CoV-2 [3]; 0.01 uM) was 70.4141 and 72.6149 and 69.2712, the cell viability (SARS-CoV-2 [3]; 0.04 uM) was 77.6184 and 78.5394 and 67.5514 and the cell viability (SARS-CoV-2 [3]; 0.12 uM) was 91.8387 and 89.8998 and 85.3326. The cell viability (SARS-CoV-2 [3]; 0.37 uM) was 98.5387 and 106.593 and 107.116, the cell viability (SARS-CoV-2 [3]; 1.11 uM) was 85.9306 and 97.0439 and 95.1349 and the cell viability (SARS-CoV-2 [3]; 3.33 uM) was 86.5239 and 91.9706 and 91.8345. The cell viability (SARS-CoV-2 [3]; 10 uM) was 89.2076 and 95.1684 and 93.0072.
`CCn1cc(C[C@H]2C(=O)N[C@@H](CC(C)C)C(=O)N(C)[C@@H](C)C(=O)O[C@H](CCC#N)C(=O)N[C@@H](CC(F)(F)F)C(=O)N(C)[C@@H](CC(C)C)C(=O)N[C@@H](CC(F)(F)F)C(=O)N2C)c2ccccc21` [KZR-9508] (cyclo(L[NMeA][Butanoyl(2R-oxy,4-CN)][Abu(4,4,4-F3)][NMeL][Abu(4,4,4-F3)][X3])) was tested, and the “selectivity compared with KZR-8445” value (Sec61) was “greater selectivity”, the IC50 (Sec61; HER3 signal peptide-GLuc, read-out: IC50 (nM) HER3) was 103 nM and ~100 nM and the IC50 (Sec61; PD1 signal peptide-GLuc, read-out: IC50 (nM) PD1) was 388 nM. For the same compound, the “loss of potency relative to KZR-8445” value (Sec61; four of five GLuc reporters) was 10–20 fold, the IC50 (Sec61; full-length IL-2-GLuc, read-out: IC50 (nM) IL-2) was 1420 nM and the IC50 (Sec61; full-length TNFα-GLuc, read-out: IC50 (nM) TNFα) was 908 nM. The IC50 (Sec61; prolactin signal peptide-GLuc, read-out: IC50 (nM) Prolactin) was 25600 nM.
`CC(C)C[C@@H]1NC(=O)[C@H](Cc2cn(Cc3ccc(Br)cc3)c3ccccc23)N(C)C(=O)[C@H](CC(F)(F)F)NC(=O)[C@H](CC(C)C)N(C)C(=O)[C@H](CC(F)(F)F)NC(=O)[C@@H](CCC#N)OC(=O)[C@H](C)N(C)C1=O` [KZR-508445] (cyclo(L[NMeA][Butanoyl(2R-oxy,4-CN)][Abu(4,4,4-F3)][NMeL][Abu(4,4,4-F3)][NMeTrp(1-(4-Br-benzyl))])) was tested, and the Clinical score ([4]; 2.5 mg/kg IV QODx3, day 13) was 9 (2×) and 6 and 11 (2×) and 4 and 12 and 8 and 13 and 7, the Clinical score ([4]; 2.5 mg/kg IV QODx3, day 14) was 9 (2×) and 5 and 11 (2×) and 2 and 12 and 10 and 13 and 7 and the Clinical score ([4]; 5 mg/kg IV QODx3, day 13) was 11 (2×) and 5 and 10 and 4 (3×) and 8 and 7 and 9. For the same compound, the Clinical score ([4]; 5 mg/kg IV QODx3, day 14) was 12 and 5 and 8 (2×) and 4 (2×) and 3 and 6 and 9 and 11, the Clinical score ([4]; 10 mg/kg IV QODx3, day 13) was 4 and 6 (3×) and 9 (2×) and 5 (2×) and 3 and 7 and the Clinical score ([4]; 10 mg/kg IV QODx3, day 14) was 5 (3×) and 7 (2×) and 9 and 6 and 8 (2×) and 3. For the same compound, the Clinical score ([4]; 20 mg/kg IV QODx3, day 4) was 1 (4×) and 2 (2×), the Clinical score ([4]; 20 mg/kg IV QODx3, day 13) was 1 (2×) and 3 (2×) and 2 and 0 and 4 and the Clinical score ([4]; 20 mg/kg IV QODx3, day 14) was 1 (2×) and 3 (3×) and 2 and 0. The Clinical score ([4]; 20 mg/kg IV QW, day 13) was 0 and 2 and 9 and 6 (2×) and 7 (2×) and 8 (2×) and 4 and the Clinical score ([4]; 20 mg/kg IV QW, day 14) was 0 and 2 and 9 (2×) and 7 (2×) and 6 and 8 (2×) and 5.
For `C[C@@H]1C[C@H]2[C@@H]3CCC4=CC(=O)C=C[C@]4(C)[C@@]3(F)[C@@H](O)C[C@]2(C)[C@@]1(O)C(=O)CO` [dexamethasone, reference compound], the Clinical score ([4]; 1.5mg/kg IP QODx3, day 4) was 1 (5×) and 2 (4×) and 3, the Clinical score ([4]; 1.5mg/kg IP QODx3, day 5) was 3 (5×) and 4 (2×) and 2 and 5 (2×) and the Clinical score ([4]; 1.5mg/kg IP QODx3, day 6) was 4 (2×) and 6 (6×) and 2 and 5. The Clinical score ([4]; 1.5mg/kg IP QODx3, day 7) was 6 (4×) and 4 and 7 (3×) and 5 and 8, the Clinical score ([4]; 1.5mg/kg IP QODx3, day 10) was 6 (3×) and 7 (2×) and 9 (2×) and 5 and 11 and 8 and the Clinical score ([4]; 1.5mg/kg IP QODx3, day 11) was 7 (3×) and 6 (2×) and 8 (2×) and 4 and 9 and 10. For the same compound, the Clinical score ([4]; 1.5mg/kg IP QODx3, day 12) was 7 (4×) and 6 (2×) and 9 (3×) and 3, the Clinical score ([4]; 1.5mg/kg IP QODx3, day 13) was 7 (3×) and 5 and 6 (2×) and 8 (2×) and 3 and 9 and the Clinical score ([4]; 1.5mg/kg IP QODx3, day 14) was 6 (2×) and 5 and 8 (2×) and 7 (2×) and 3 and 10 and 9.
